This is an account of results in PMC12668310, “High‐Throughput Synthesis and Screening of a Cyanimide Library Identifies Selective Inhibitors of ISG15‐Specific Protease mUSP18” (Angewandte Chemie (International Ed. in English), 2025).

SMILES strings stand for the structures. Read-outs that look alike come from different tables or passages of the source.

The test addresses T1, mUSP18 (Mus musculus, UniProt Q9WTV6).
T1 construct: (46-368); His-tag (N); made in house
T1 sequence (Q9WTV6 46-368): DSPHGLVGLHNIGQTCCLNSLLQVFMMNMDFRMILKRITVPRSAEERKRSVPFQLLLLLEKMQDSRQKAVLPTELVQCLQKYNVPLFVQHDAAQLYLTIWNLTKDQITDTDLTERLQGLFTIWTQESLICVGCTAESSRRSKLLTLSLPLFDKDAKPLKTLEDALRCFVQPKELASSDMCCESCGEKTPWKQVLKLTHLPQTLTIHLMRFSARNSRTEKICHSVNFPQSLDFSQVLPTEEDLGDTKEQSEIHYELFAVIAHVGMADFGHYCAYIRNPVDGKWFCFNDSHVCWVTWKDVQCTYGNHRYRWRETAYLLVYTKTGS
Kind of test: High-throughput screening, ISG15ct-RhoMP, single dose 1.25 µM. Type of test: biochemical, murine. The settings on record: mUSP18 %inhibition.

Where [1] appears, read: carboxylic acid (CA) building block alone, read-out: %inh CA only.
The mark [2] stands for this setting: carboxylic acid (CA) with coupling reagents DIC/HOBT, read-out: %inh CA + DIC/HOBT.

As to `O=C(O)CC1(n2cnnn2)CCOCC1` [CA310], the inhibition at 1.25 µM reads like this: under setting [1], 3.18%; under setting [2], -2.42%.

For the compound `O=C(O)c1sc(N2CCCC2)nc1Cl` [CA311], the inhibition at 1.25 µM reads like this: under setting [1], 3.86%; under setting [2], -3.06%.

For `COc1ccc(CN2CCC2C(=O)O)cc1` (centres unmarked) [CA312], the inhibition at 1.25 µM is 3.67% under setting [1] and -3.27% under setting [2].

In the case of `COCC1CCN(c2ccc(C(=O)O)cc2)C1` (centres unmarked) [CA313], the inhibition at 1.25 µM runs as follows: under setting [1], 2.9%; under setting [2], 43.3%.

Regarding `Cc1nn(-c2cccnc2)nc1C(=O)O` [CA314], the inhibition at 1.25 µM runs as follows: under setting [1], 5.77%; under setting [2], -5.31%.

With `Cc1nn(-c2ccccn2)c(C)c1CC(=O)O` [CA315], the inhibition at 1.25 µM runs as follows: under setting [1], 3.49%; under setting [2], -2.69%.

For the compound `O=C(O)c1ccnn1C1CCC1` [CA316], the inhibition at 1.25 µM was 3.75% under setting [1] and -3.62% under setting [2].

Take `O=C(O)CC1(Cn2cnnn2)CCCCC1` [CA317]: the inhibition at 1.25 µM under setting [1] stood at 3.86% and the inhibition at 1.25 µM under setting [2] is -1.32%.

Consider `O=C(O)c1cn(CC2CCOC2)nn1` (centres unmarked) [CA318], for which the inhibition at 1.25 µM under setting [1] was -2.05% and the inhibition at 1.25 µM under setting [2] was -0.23%.

For the compound `O=C(O)c1ccn(-c2ccc(C(F)(F)F)cn2)n1` [CA319], the inhibition at 1.25 µM by setting is: under setting [1], -2.14%; under setting [2], -1.07%.

`O=C(O)c1sccc1S(=O)(=O)NCc1ccco1` [CA320]: the inhibition at 1.25 µM is -2.92% under setting [1] and 4.46% under setting [2].

Turning to `O=C(O)c1cnn(Cn2cc(Cl)cn2)c1` [CA321], the inhibition at 1.25 µM is -3.47% under setting [1] and 1.28% under setting [2].

With `O=C(O)c1nc(OCC2CC2)ccc1Cl` [CA322], the inhibition at 1.25 µM was -0.54% under setting [1] and -0.53% under setting [2].

For `CC(C(=O)O)n1ccc(C2CC2)n1` (centres unmarked) [CA323], the inhibition at 1.25 µM was -0.32% under setting [1] and 0.72% under setting [2].

Turning to `Cn1cc(S(=O)(=O)N2CCOCC2)cc1C(=O)O` [CA324], the inhibition at 1.25 µM under setting [1] is -1.59% and the inhibition at 1.25 µM under setting [2] was 1.03%.

Consider `Cn1nc(CC(=O)O)cc1C1CC1` [CA325], for which the inhibition at 1.25 µM is, setting by setting: under setting [1], -0.57%; under setting [2], 0.73%.

With `COc1ccc(C(=O)O)cc1S(=O)(=O)NCCCN1CCOCC1` [CA326], the inhibition at 1.25 µM is -1.48% under setting [1] and -1.62% under setting [2].

For the compound `Cc1sc(-n2cnnn2)c(C(=O)O)c1C` [CA327], the inhibition at 1.25 µM under setting [1] is -5.75% and the inhibition at 1.25 µM under setting [2] was 4.6%.

On to `Cc1noc(-c2ccc(C(=O)O)cc2)n1` [CA328], for which the inhibition at 1.25 µM was -3.57% under setting [1] and 6.75% under setting [2].

`CCOc1oc(-c2ccco2)nc1C(=O)O` [CA329]: the inhibition at 1.25 µM is, setting by setting: under setting [1], 14.4%; under setting [2], 1%.

Regarding `Cc1ccc(S(=O)(=O)NCCc2ccc(F)cc2)cc1C(=O)O` [CA330], the inhibition at 1.25 µM was 11.3% under setting [1] and -0.35% under setting [2].

Consider `Cc1nc(-c2ccco2)ccc1C(=O)O` [CA331], for which the inhibition at 1.25 µM was 7.93% under setting [1] and -2.82% under setting [2].

Turning to `O=C(CC1(C(=O)O)CCCC1)N1CCOCC1` [CA332], the inhibition at 1.25 µM by setting is: under setting [1], 2.56%; under setting [2], -3.79%.

With `CN(Cc1ccccc1)C(=O)N1CCC(C(=O)O)CC1` [CA333], the inhibition at 1.25 µM by setting is: under setting [1], 1.66%; under setting [2], -0.9%.

In the case of `O=C(O)C1(NS(=O)(=O)C=Cc2ccccc2)CCCC1` [CA334], the inhibition at 1.25 µM came out at 0.85% under setting [1] and 6.5% under setting [2].

On to `O=C(O)C(Cc1ccccc1)N1CCCOC1=O` (centres unmarked) [CA335], for which the inhibition at 1.25 µM under setting [1] was 2.86% and the inhibition at 1.25 µM under setting [2] was -1.08%.

Turning to `O=C(O)c1ccc(N2CCCS2(=O)=O)cc1` [CA336], the inhibition at 1.25 µM by setting is: under setting [1], 1.69%; under setting [2], -1.03%.

Take `Cc1ccc(CN2C(=O)CCC2C(=O)O)cc1` (centres unmarked) [CA337]: the inhibition at 1.25 µM reads like this: under setting [1], -0.24%; under setting [2], -1.16%.

`O=C(O)c1nc(C2CC2)ncc1Br` [CA338]: the inhibition at 1.25 µM under setting [1] worked out at 7.6% and the inhibition at 1.25 µM under setting [2] was -0.51%.

As to `CN1C(=O)CCC(C(=O)O)C1c1cccs1` (centres unmarked) [CA339], the inhibition at 1.25 µM reads like this: under setting [1], 2.79%; under setting [2], -5.82%.

In the case of `COc1ccc(CC(=O)O)cc1S(=O)(=O)N1CCOCC1` [CA340], the inhibition at 1.25 µM was 3.33% under setting [1] and -0.36% under setting [2].

Consider `O=C(O)c1ccc(-c2ccccn2)s1` [CA341], for which the inhibition at 1.25 µM worked out at 0.41% under setting [1] and 3.46% under setting [2].

`Cc1noc(C)c1S(=O)(=O)N1CCCC1C(=O)O` (centres unmarked) [CA342]: the inhibition at 1.25 µM under setting [1] was 2.95% and the inhibition at 1.25 µM under setting [2] stood at 1.55%.

For `Cc1cc(C(=O)N(C)c2ccccc2C(=O)O)sc1C` [CA343], the inhibition at 1.25 µM runs as follows: under setting [1], 13.5%; under setting [2], 8.07%.

Consider `O=C(O)c1ccc(N2CCCCCC2)nc1` [CA344], for which the inhibition at 1.25 µM under setting [1] worked out at 0.4% and the inhibition at 1.25 µM under setting [2] worked out at 47%.

Turning to `O=C(O)CC1=NN(c2cccc(Cl)c2)C(=O)C1` [CA345], the inhibition at 1.25 µM was 2% under setting [1] and 4.68% under setting [2].

`Cc1oc(-c2cccs2)nc1C(=O)O` [CA346]: the inhibition at 1.25 µM runs as follows: under setting [1], 8.25%; under setting [2], 12.6%.

On to `O=C(O)c1ccnc(C2CC2)n1` [CA347], for which the inhibition at 1.25 µM reads like this: under setting [1], -0.62%; under setting [2], 1.21%.

As for `Cn1ccnc1CN1CCC(C(=O)O)CC1` [CA348], the inhibition at 1.25 µM under setting [1] is -0.25% and the inhibition at 1.25 µM under setting [2] was -2.62%.

For `O=C(O)c1cc(C2CC2)no1` [CA349], the inhibition at 1.25 µM runs as follows: under setting [1], -3.22%; under setting [2], 5.85%.

On to `O=C(O)C1CCN(C(=O)c2ccc(Cl)s2)CC1` [CA350], for which the inhibition at 1.25 µM reads like this: under setting [1], -0.76%; under setting [2], 4.42%.

For `O=C(O)c1ccc(Oc2cccc(Cl)c2)cn1` [CA351], the inhibition at 1.25 µM is, setting by setting: under setting [1], 4.42%; under setting [2], 14.8%.

In the case of `CC1CN(c2ccc(C(=O)O)cn2)CC(C)O1` (centres unmarked) [CA352], the inhibition at 1.25 µM reads like this: under setting [1], -4.1%; under setting [2], 13.3%.

Turning to `O=C(O)c1csc(C2CCCCC2)n1` [CA353], the inhibition at 1.25 µM under setting [1] is 14.4% and the inhibition at 1.25 µM under setting [2] came out at 1.26%.

Take `O=C(O)c1occc1-c1ccccc1` [CA354]: the inhibition at 1.25 µM under setting [1] is 10.9% and the inhibition at 1.25 µM under setting [2] was -1.55%.

For `O=C(O)c1ccc(Cn2cccn2)s1` [CA355], the inhibition at 1.25 µM was 7.41% under setting [1] and -1.93% under setting [2].

For `O=C(O)C1CC2CCC1O2` (centres unmarked) [CA356], the inhibition at 1.25 µM under setting [1] was found to be 3.97% and the inhibition at 1.25 µM under setting [2] is -4.92%.

For the compound `O=C(O)c1ccc(-c2ccccn2)nc1` [CA357], the inhibition at 1.25 µM by setting is: under setting [1], 4.64%; under setting [2], -1.59%.

Turning to `O=C(O)C1CC2C=CC1O2` (centres unmarked) [CA358], the inhibition at 1.25 µM by setting is: under setting [1], 5.65%; under setting [2], -4.55%.

With `O=C(O)C1CC=CCC1C(=O)N1CCOCC1` (centres unmarked) [CA359], the inhibition at 1.25 µM was 4.09% under setting [1] and 0.61% under setting [2].

On to `O=C(O)c1cccc(N2CCOCC2)n1` [CA360], for which the inhibition at 1.25 µM runs as follows: under setting [1], 3.09%; under setting [2], -0.29%.

Turning to `O=C(O)c1cccc(Cn2cncn2)c1` [CA361], the inhibition at 1.25 µM is, setting by setting: under setting [1], -2.66%; under setting [2], 0.1%.
